We go through two molecules from patent publication US20150216189A1, “NATAMYCIN-CYCLODEXTRIN COMPLEXES FOR USE IN FOODSTUFF, PROCESS FOR THEIR MANUFACTURE AND USE THEREOF” (priority 2011, published 2015).

Structures are written as SMILES.

The text on series [1]: Natamycin is sensitive to both high and low pH values and is degraded under such conditions. Despite this fact, the present invention utilizes such pH ranges. […] Typically the pH value is in the range of 10 to 12. In another embodiment the pH value of the aqueous solution in the complexation step is in the range of 6 or lower, preferably 1 to 4. Typically the pH value is lower than 4, such as in the range of 3 to 4. […] The tests in FIG. 1 and FIG. 2 were made through mixing natamycin (1%) and cyclodextrin (1%) with water (98%)

The test system of another series is yeasts and moulds. Particulars: cited from earlier work.
The conditions of series [2]: cited from earlier work.
A further series concerns mould. As to the kind of experiment: Tortilla spray application shelf life study (mould growth). Particulars: 21.7° C., no natamycin (variables 2, 3). The procedure: A gamma-cyclodextrin-natamycin solution was produced employing a high pH system and the obtained solution was spray dried. Tortillas were treated with a standard natamycin (Natamax® SF) treatment, the spray-dried gamma-cyclodextrin-natamycin product, and traditional chemical preservatives to assess relative antifungal efficacy in baked goods.
Sample Variables in the Tortilla Treatments: • 1. Control—Deionized Water • 2. Control—Gamma-cyclodextrin (0.5% solution) • 3. Traditional Chemical Preservatives (fumarate, sorbate, propionate) • 4. Natamax® SF (target of ˜12 ppm natamycin on finished product) • 5. Gamma-cyclodextrin-natamycin powder (target of ˜12 ppm natamycin on finished product) • 6. Gamma-cyclodextrin-natamycin powder (target of ˜6 ppm natamycin on finished product)
For the spray application, each of the solutions were sprayed on 36 tortillas (about seven inches in diameter) using roughly the same spray volume. The tortillas were held on standard storage racks at 21.7° C. and monitored 0 to 30 days for mould growth.

Series [3] can be described thus: Antifungal activity on baked goods. The source says: Studies were done wherein aqueous solutions of natamycin-cyclodextrin complexes have been applied onto shredded cheese or used in pharmaceutical preparations.

As for `C[C@@H]1C/C=C/C=C/C=C/C=C/[C@H](O[C@@H]2O[C@H](C)[C@@H](O)[C@H](N)[C@@H]2O)C[C@@H]2O[C@](O)(C[C@@H](O)C[C@H]3O[C@@H]3/C=C/C(=O)O1)C[C@H](O)[C@H]2C(=O)O` [Natamycin], the “percentage of solubilized natamycin” value in series [1] was “lower than 4%”. The “concentrations inhibiting most strains” value in the series with yeasts and moulds is listed as 1-40 ppm. Further, in series [2], the maximum water solubility result is listed as “around 40 ppm”.

`OC[C@H]1O[C@@H]2O[C@H]3[C@H](O)[C@@H](O)[C@@H](O[C@H]4[C@H](O)[C@@H](O)[C@@H](O[C@H]5[C@H](O)[C@@H](O)[C@@H](O[C@H]6[C@H](O)[C@@H](O)[C@@H](O[C@H]7[C@H](O)[C@@H](O)[C@@H](O[C@H]8[C@H](O)[C@@H](O)[C@@H](O[C@H]9[C@H](O)[C@@H](O)[C@@H](O[C@H]1[C@H](O)[C@H]2O)O[C@@H]9CO)O[C@@H]8CO)O[C@@H]7CO)O[C@@H]6CO)O[C@@H]5CO)O[C@@H]4CO)O[C@@H]3CO` [Variable 2, Gamma-cyclodextrin]: the “Number of moulded tortillas” value with mould (Day 0) worked out at 0; in the series on mould (Day 5) it was 20; with mould (Day 6) it was 25; with mould (Day 7), 26; in the series on mould (Day 8), 28; in the series on mould (Day 9), 28. Further, the “Number of moulded tortillas” value in the series on mould (Day 12), in the series on mould (Day 13), in the series on mould (Day 14), in the series on mould (Day 15), in the series on mould (Day 16) and in the series on mould (Day 19) was 30 throughout. The “Number of moulded tortillas” value in the series with mould (Day 20), in the series with mould (Day 21), in the series on mould (Day 26), in the series on mould (Day 27), in the series on mould (Day 28) and in the series on mould (Day 29) was 30 throughout. Besides, the “Number of moulded tortillas” value in the series with mould (Day 30) stood at 30. In addition, the “antifungal activity when applied on baked goods” value in series [3] is listed as “no antifungal activity”.
